In PubChem BioAssay (NCI):
Values joined by “and” are separate entries in the source; they are usually repeats but may differ in a detail not shown here. Equal values may be shown once.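 48-hour exposure; five concentrations; linearly interpolated endpoints. The concentration for 50% growth inhibition is given as GI50. TGI denotes the concentration required for complete inhibition of growth.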

Experiments:
Assay in all cases: NCI-60 cell line screen, 48 h
DMS 273 small cell lung = system: DMS 273 small cell lung
SNB-78 CNS = system: SNB-78 CNS
DMS 114 small cell lung = system: DMS 114 small cell lung
LXFL 529 NSCLC = system: LXFL 529 NSCLC
XF 498 CNS = system: XF 498 CNS
MDA-N = system: MDA-N
MCF7 breast = system: MCF7 breast
RXF-631 renal = system: RXF-631 renal
HOP-18 NSCLC = system: HOP-18 NSCLC

SMILES	TGI (DMS 273 small cell lung)	TGI (SNB-78 CNS)	TGI (DMS 114 small cell lung)	TGI (LXFL 529 NSCLC)	TGI (MCF7 breast)	GI50 (MCF7 breast)	TGI (RXF-631 renal)	TGI (HOP-18 NSCLC)	also measured
NC(=S)NNc1c([N+](=O)[O-])cnn(-c2ccccc2)c1=O	33.8 µM	48.3 µM	33.2 µM	21.1 µM	–	–	–	–	TGI (XF 498 CNS): 32.6 µM
O=C1C(c2ccccc2)=[N+]([O-])c2ccccc21	–	–	–	–	4.88 µM	–	–	–	TGI (MDA-N): 12.8 µM
O=C(O)c1ccc2c(c1)CCCC(c1ccc(Cl)cc1Cl)=C2c1ccc(O[C@H]2CCN(CCCF)C2)cc1	–	–	–	–	15.9 µM	< 0.01 µM	–	–	–
CCCCN(CCCC)c1c([N+](=O)[O-])c(=O)nc2ccccn12	–	> 100 µM	49.6 µM	> 100 µM	–	–	79.8 µM	–	TGI (XF 498 CNS): 79.6 µM
CCC1=NC(CO)[C@H](c2ccccc2)O1 (stereo partly drawn)	> 100 µM	> 100 µM	> 100 µM	–	–	–	–	> 100 µM	TGI (XF 498 CNS): > 100 µM
C=CC(=O)Nc1cc2c(Nc3ccc(F)c(Cl)c3)ncnc2cc1OCCCN1CCOCC1	–	–	–	–	7.01 µM and > 10 µM	1.32 µM and 2.52 µM	–	–	–
O=[N+]([O-])c1cnn(C2=CNc3ccccc3N=C2)c1	> 100 µM	> 100 µM	–	–	–	–	> 100 µM	> 100 µM	TGI (XF 498 CNS): > 100 µM
Cc1cccc(-n2c(=S)[nH]c3c(sc(=O)n3-c3ccccc3C)c2=O)c1	> 100 µM	> 100 µM	> 100 µM	> 100 µM	–	–	> 100 µM	> 100 µM	–
CN1CC[C@]2(C)c3ccc(O)cc3CC3CCCC1C32C (stereo partly drawn)	–	> 100 µM	> 100 µM	> 100 µM	–	–	> 100 µM	> 100 µM	TGI (XF 498 CNS): > 100 µM
NC(N)=NCCC1OC(=O)C2=C1c1c(O)ccc3nccc(c13)O2 (stereo not drawn)	–	–	–	–	> 100 µM	> 100 µM	–	–	GI50 (MDA-N): > 100 µM; TGI (MDA-N): > 100 µM
CCOc1cc(/C=N\Nc2nnc(C)n2N)c(C)cc1N(CCCl)CCCl	–	–	–	–	> 25.7 µM	0.391 µM	–	–	–
C/C=C/C=C/C=C/C=C/C(=O)O	> 100 µM	> 100 µM	> 100 µM	> 100 µM	–	–	> 100 µM	> 100 µM	–
COc1ccc2[nH]c(O)c(C(=Nc3ccc(N(C)C(=O)CN4CCN(C)CC4)cc3)c3ccccc3)c2c1	–	–	–	–	3.62 µM	0.725 µM	–	–	–
Cc1cccc(C)c1NC(=O)C1C(=O)N(c2c(C)cccc2C)C(=O)/C1=N\NC(N)=S (stereo not drawn)	–	> 100 µM	> 100 µM	> 100 µM	–	–	–	> 100 µM	–
Cc1ccc(-c2cc(-c3ccccc3)c(C#N)c(=O)n2C2OC(CO)C(O)C(O)C2O)cc1 (stereo not drawn)	> 100 µM	> 100 µM	> 100 µM	> 100 µM	–	–	> 100 µM	> 100 µM	–
Cc1ccc(-c2cc(-c3ccco3)c(C#N)c(=O)n2C2OC(OC(=O)c3ccccc3)C(OC(=O)c3ccccc3)C2OC(=O)c2ccccc2)cc1 (stereo not drawn)	> 100 µM	> 100 µM	> 100 µM	> 100 µM	–	–	> 100 µM	> 100 µM	–
COc1ccc(N2C(=O)[C@H]3CC(C)c4c([nH]c5ccccc45)[C@H]3C2=O)cc1 (stereo partly drawn)	17.2 µM	> 59.5 µM	7.32 µM	26.8 µM	> 100 µM	–	–	–	TGI (MDA-N): 3.4 µM; TGI (XF 498 CNS): 22.4 µM
O=C(O)C1CCCCC1C(=O)O.[NH-]C1CCC1.[NH2-].[Pt+2] (stereo not drawn)	–	–	–	–	> 100 µM	22.7 µM	–	–	–

SMILES	TGI (DMS 273 small cell lung)	TGI (SNB-78 CNS)	TGI (DMS 114 small cell lung)	TGI (LXFL 529 NSCLC)	TGI (MCF7 breast)	GI50 (MCF7 breast)	TGI (RXF-631 renal)	TGI (HOP-18 NSCLC)	also measured
COC1OC(CO)C(O)C1N (stereo not drawn)	–	> 100 µM	> 100 µM	> 100 µM	–	–	> 100 µM	> 100 µM	–
CC[C@]1(O)C(=O)OCc2c1cc1n(c2=O)Cc2cc3c(N)cccc3nc2-1	> 100 µM	–	> 100 µM	> 100 µM	–	–	> 100 µM	> 100 µM	TGI (XF 498 CNS): > 100 µM
N.N.N.N.O=C([O-])C(Cl)Cl.O=C([O-])C(Cl)Cl.[Co+3].[O-][Cl+3]([O-])([O-])[O-]	> 100 µM	> 100 µM	–	> 100 µM	–	–	–	–	GI50 (DMS 273 small cell lung): > 100 µM; GI50 (SNB-78 CNS): > 100 µM; GI50 (LXFL 529 NSCLC): > 100 µM
COc1ccc(/C=C\c2cc(OC)c(O[Si](C)(C)C(C)(C)C)c(OC)c2)cc1	> 100 µM	–	91.4 µM	> 100 µM	–	–	> 100 µM	–	TGI (XF 498 CNS): 49.5 µM
CCOC(=O)/C=C/C1=C(c2cccs2)c2ccccc2CC1	–	–	–	–	> 100 µM	36.1 µM	–	–	–
CCn1c2ccc(O)cc2c2c(C)c3c[n+](C)ccc3c(C)c21	–	–	–	–	23.4 µM	2.65 µM	–	–	–
COc1cc2ncnc(Nc3ccc(F)c(Cl)c3)c2cc1NC(=O)/C=C/CN1CCCCC1	–	–	–	–	6.32 µM and 6.56 µM	2 µM and 2.03 µM	–	–	–
Cc1sc2nc3c4ccccc4c(NCCCN(C)C)nn3c(=O)c2c1C	–	–	–	–	5.63 µM	1.43 µM	–	–	–
COc1ccc(-c2ccc(-c3ccc(C(=N)N)cn3)o2)cc1	–	–	–	–	13.4 µM	3.17 µM	–	–	–
COc1ccccc1/C=C/C(=O)c1ccccc1	–	–	–	–	10.2 µM	1.56 µM	–	–	–
Cc1cc2c(cc1Cl)SC1=NN(C)C(N(C)C)N1S2(=O)=O (stereo not drawn)	–	–	–	–	> 100 µM	> 100 µM	–	–	–
COc1ccc(/C=C2\CCCC(C(NO)c3ccc(OC)cc3)C2=NO)cc1 (stereo not drawn)	> 100 µM	> 100 µM	> 100 µM	> 100 µM	–	–	> 100 µM	> 100 µM	–
COc1cc(/C=C2\C(=O)Nc3ccc(N(C)C)cc32)cc(OC)c1OC	–	–	–	–	> 100 µM	1.51 µM	–	–	–
COc1cc(-c2cn(-c3ccc(Cl)c(Cl)c3)c(=O)n2C(C)=O)cc(OC)c1OC	–	–	–	–	37.7 µM	14.7 µM	–	–	–
COc1ccc(C2=NN(C=O)C(c3cccc(Nc4ccnc5cc(Cl)ccc45)c3)C2)cc1 (stereo not drawn)	–	–	–	–	39.4 µM	1.59 µM	–	–	–
CCOC(=O)c1cc(/C=C/C(C)=C/C(=O)OC)oc1C	–	> 100 µM	> 100 µM	> 100 µM	–	–	–	–	TGI (XF 498 CNS): > 100 µM
CCCOc1ccc2nc(NC(=O)OC)[nH]c2c1	–	–	–	–	> 100 µM	0.239 µM	–	–	–
Cn1c2c(c3ccc(Cl)c(Cl)c31)C(C#N)C1(CCNCC1)NC2=O (stereo not drawn)	–	–	–	–	3.01 µM	1.45 µM	–	–	–
